For the test, the target named is T1, Solute carrier family 15 member 1 (Homo sapiens) (UniProt P46059).
T1 sequence (whole entry): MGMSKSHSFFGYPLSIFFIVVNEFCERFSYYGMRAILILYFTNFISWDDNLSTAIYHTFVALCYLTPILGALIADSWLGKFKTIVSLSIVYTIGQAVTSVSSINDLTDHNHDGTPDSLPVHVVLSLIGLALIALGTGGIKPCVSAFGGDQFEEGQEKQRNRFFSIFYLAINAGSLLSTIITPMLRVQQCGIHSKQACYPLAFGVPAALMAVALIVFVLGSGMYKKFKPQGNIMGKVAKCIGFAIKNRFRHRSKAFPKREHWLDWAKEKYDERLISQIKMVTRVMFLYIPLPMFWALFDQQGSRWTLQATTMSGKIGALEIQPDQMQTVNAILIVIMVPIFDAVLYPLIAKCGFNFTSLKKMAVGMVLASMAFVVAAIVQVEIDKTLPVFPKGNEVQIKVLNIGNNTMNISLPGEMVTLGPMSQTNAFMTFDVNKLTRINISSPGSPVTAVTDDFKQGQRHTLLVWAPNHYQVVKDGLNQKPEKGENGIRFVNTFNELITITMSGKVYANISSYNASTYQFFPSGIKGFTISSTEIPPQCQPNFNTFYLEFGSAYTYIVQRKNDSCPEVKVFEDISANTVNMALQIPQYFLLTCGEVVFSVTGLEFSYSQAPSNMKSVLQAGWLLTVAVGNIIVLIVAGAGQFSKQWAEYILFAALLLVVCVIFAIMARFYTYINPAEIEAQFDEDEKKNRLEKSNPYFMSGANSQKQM
In words: TP_TRANSPORTER: upregulation of mRNA and protein in Caco-2 cells. It is filed as functional, cell-based.

Peptide text beside a SMILES is read from it.

In the case of `NCC(=O)N[C@@H](CCC(N)=O)C(=O)O` (H-Gly-Gln-OH), the Activity entry is “inducer [+]”.

The values above are taken from ChEMBL document CHEMBL2074161, “Substrate upregulation of the human small intestinal peptide transporter, hPepT1” (J Physiol, 1998).
